# Measured values from patent publication US11498899B2, “Nitrone herbicides” (FMC Corporation, priority 2016, dated 2022).
# Columns and labels:
# rice (Oryza sativa) = experiment: Test B flooded paddy test, visual rating 0-100 (0 no effect, 100 complete control); conditions: Flood, 250 g ai/ha, applied to paddy water, rated after 13 to 15 days
# [1] = test system: barnyardgrass (Echinochloa crus-galli); experiment: Test B flooded paddy test, visual rating 0-100; conditions: Flood, 250 g ai/ha, applied to paddy water, rated after 13 to 15 days
# [2] = test system: ragweed (common ragweed, Ambrosia elatior); experiment: Test A preemergence, visual injury rating 0-100; type: in vivo; conditions: for Ragweed plant response rating: 0 to 100 scale (0 no effect, 100 complete control), approx. 10 days
# [3] = test system: ryegrass, Italian (Italian ryegrass, Lolium multiflorum); experiment: Test A preemergence, visual injury rating 0-100; type: in vivo; conditions: for Ryegrass, Italian plant response rating: 0 to 100 scale (0 no effect, 100 complete control), approx. 10 days
# kochia (Kochia scoparia) [4] = experiment: Test A preemergence, visual injury rating 0-100; type: in vivo; conditions: for Kochia plant response rating: 0 to 100 scale (0 no effect, 100 complete control), approx. 10 days
# [5] = test system: foxtail, giant (giant foxtail, Setaria faberii); experiment: Test A preemergence, visual injury rating 0-100; type: in vivo; conditions: for Foxtail, Giant plant response rating: 0 to 100 scale (0 no effect, 100 complete control), approx. 10 days
# [6] = test system: pigweed (Amaranthus retroflexus); experiment: Test A preemergence, visual injury rating 0-100; type: in vivo; conditions: for Pigweed plant response rating: 0 to 100 scale (0 no effect, 100 complete control), approx. 10 days
# [7] = test system: ducksalad (Heteranthera limosa); experiment: Test B flooded paddy test, visual rating 0-100; conditions: Flood, 250 g ai/ha, applied to paddy water, rated after 13 to 15 days
# [8] = test system: ragweed (common ragweed, Ambrosia elatior); experiment: Test A postemergence, visual injury rating 0-100; type: in vivo; conditions: 0 to 100 scale
# Text: (§1) Seeds of plant species selected from barnyardgrass (Echinochloa crus-galli), kochia (Kochia scoparia), ragweed (common ragweed, Ambrosia elatior), ryegrass, Italian (Italian ryegrass, Lolium multiflorum), foxtail, giant (giant foxtail, Setaria faberii), foxtail, green (green foxtail, Setaria viridis), and pigweed (Amaranthus retroflexus) were planted into a blend of loam soil and sand and treated preemergence with a directed soil spray using test chemicals formulated in a non-phytotoxic solvent mixture which included a surfactant.
# (§2) At the same time, plants selected from these weed species and also wheat (Triticum aestivum), corn (Zea mays), blackgrass (Alopecurus myosuroides), and galium (catchweed bedstraw, Galium aparine) were planted in pots containing the same blend of loam soil and sand and treated with postemergence applications of test chemicals formulated in the same manner. Plants ranged in height from 2 to 10 cm and were in the one- to two-leaf stage for the postemergence treatment. Treated plants and untreated controls were maintained in a greenhouse for approximately 10 days, after which time all treated plants were compared to untreated controls and visually evaluated for injury. […] A dash (-) response means no test result.
# [9] = test system: barnyardgrass (Echinochloa crus-galli); experiment: Test A postemergence, visual injury rating 0-100; type: in vivo; conditions: 0 to 100 scale
# Text: as §1, §2
# [10] = test system: ryegrass, Italian (Italian ryegrass, Lolium multiflorum); experiment: Test A postemergence, visual injury rating 0-100; type: in vivo; conditions: 0 to 100 scale
# Text: as §1, §2
# kochia (Kochia scoparia) [11] = experiment: Test A postemergence, visual injury rating 0-100; type: in vivo; conditions: 0 to 100 scale
# Text: as §1, §2
# [12] = test system: foxtail, giant (giant foxtail, Setaria faberii); experiment: Test A postemergence, visual injury rating 0-100; type: in vivo; conditions: 0 to 100 scale
# Text: as §1, §2
# corn (Zea mays) = experiment: Test A postemergence, visual injury rating 0-100; type: in vivo; conditions: 0 to 100 scale
# Text: as §1, §2
# [13] = test system: blackgrass (Alopecurus myosuroides); experiment: Test A postemergence, visual injury rating 0-100; type: in vivo; conditions: 0 to 100 scale
# Text: as §1, §2
# [14] = test system: galium (catchweed bedstraw, Galium aparine); experiment: Test A postemergence, visual injury rating 0-100; type: in vivo; conditions: 0 to 100 scale
# Text: as §1, §2
# [15] = test system: pigweed (Amaranthus retroflexus); experiment: Test A postemergence, visual injury rating 0-100; type: in vivo; conditions: 0 to 100 scale
# Text: as §1, §2
# [16] = test system: wheat (Triticum aestivum); experiment: Test A postemergence, visual injury rating 0-100; type: in vivo; conditions: 0 to 100 scale
# Text: as §1, §2
# [17] = test system: barnyardgrass (Echinochloa crus-galli); experiment: Test A preemergence, visual injury rating 0-100 (0 no effect, 100 complete control); type: in vivo; conditions: for Barnyardgrass plant response rating: 0 to 100 scale (0 no effect, 100 complete control), approx. 10 days
SMILES,Rice plant response rating (0 to 100 scale) (rice (Oryza sativa)),Barnyardgrass plant response rating (0 to 100 scale) [1],Ragweed plant response rating (0 to 100 scale) ([2]; 125 g ai/ha),Ragweed plant response rating (0 to 100 scale) ([2]; 500 g ai/ha),"Ryegrass, Italian plant response rating (0 to 100 scale) ([3]; 125 g ai/ha)","Ryegrass, Italian plant response rating (0 to 100 scale) ([3]; 500 g ai/ha)",Kochia plant response rating (0 to 100 scale) (kochia (Kochia scoparia) [4]; 125 g ai/ha),Kochia plant response rating (0 to 100 scale) (kochia (Kochia scoparia) [4]; 500 g ai/ha),"Foxtail, Giant plant response rating (0 to 100 scale) ([5]; 125 g ai/ha)",Ducksalad plant response rating (0 to 100 scale) [7],Ragweed plant response rating ([8]; 125 g ai/ha),Barnyardgrass plant response rating ([9]; 125 g ai/ha),"Ryegrass, Italian plant response rating ([10]; 125 g ai/ha)",Kochia plant response rating (kochia (Kochia scoparia) [11]; 125 g ai/ha),"Foxtail, Giant plant response rating ([12]; 125 g ai/ha)",Corn plant response rating (corn (Zea mays); 125 g ai/ha),Blackgrass plant response rating ([13]; 125 g ai/ha),Galium plant response rating ([14]; 125 g ai/ha),Pigweed plant response rating ([15]; 125 g ai/ha),Wheat plant response rating ([16]; 125 g ai/ha),other results
CC1=[N+]([O-])C(C(=O)Nc2cccc(F)c2F)C(c2cccc(C)c2C)C1 (racemic) [Compound 77],0,75,30,80,10,90,10,70,90,100,20,80,40,0,90,50,60,50,0,50,"Foxtail, Giant plant response rating (0 to 100 scale) ([5]; 500 g ai/ha): 90; Pigweed plant response rating (0 to 100 scale) ([6]; 125 g ai/ha): 20; Pigweed plant response rating (0 to 100 scale) ([6]; 500 g ai/ha): 70; Ragweed plant response rating ([8]; 500 g ai/ha): 60; Barnyardgrass plant response rating ([9]; 500 g ai/ha): 90; Ryegrass, Italian plant response rating ([10]; 500 g ai/ha): 70; Kochia plant response rating (kochia (Kochia scoparia) [11]; 500 g ai/ha): 20; Foxtail, Giant plant response rating ([12]; 500 g ai/ha): 90; Corn plant response rating (corn (Zea mays); 500 g ai/ha): 60; Blackgrass plant response rating ([13]; 500 g ai/ha): 80; Galium plant response rating ([14]; 500 g ai/ha): 70; Pigweed plant response rating ([15]; 500 g ai/ha): 20; Wheat plant response rating ([16]; 500 g ai/ha): 70; Barnyardgrass plant response rating (0 to 100 scale) ([17]; 125 g ai/ha): 90; Barnyardgrass plant response rating (0 to 100 scale) ([17]; 500 g ai/ha): 90"
CC1=[N+]([O-])C(C(=O)Nc2cccc(F)c2F)C(c2ccc(Br)cn2)C1 (racemic) [Compound 66],15,35,0,0,0,0,0,0,10,75,0,0,0,0,0,0,0,0,0,0,"Foxtail, Giant plant response rating (0 to 100 scale) ([5]; 500 g ai/ha): 70; Pigweed plant response rating (0 to 100 scale) ([6]; 125 g ai/ha): 0; Pigweed plant response rating (0 to 100 scale) ([6]; 500 g ai/ha): 0; Ragweed plant response rating ([8]; 500 g ai/ha): 0; Barnyardgrass plant response rating ([9]; 500 g ai/ha): 0; Ryegrass, Italian plant response rating ([10]; 500 g ai/ha): 0; Kochia plant response rating (kochia (Kochia scoparia) [11]; 500 g ai/ha): 0; Foxtail, Giant plant response rating ([12]; 500 g ai/ha): 0; Corn plant response rating (corn (Zea mays); 500 g ai/ha): 0; Blackgrass plant response rating ([13]; 500 g ai/ha): 0; Galium plant response rating ([14]; 500 g ai/ha): 0; Pigweed plant response rating ([15]; 500 g ai/ha): 0; Wheat plant response rating ([16]; 500 g ai/ha): 0; Barnyardgrass plant response rating (0 to 100 scale) ([17]; 125 g ai/ha): 0; Barnyardgrass plant response rating (0 to 100 scale) ([17]; 500 g ai/ha): 20"
CC1=[N+]([O-])[C@@H](C(=O)Nc2cccc(F)c2F)[C@H](c2cccc(OC(C)C)c2)C1 [Compound 55],0,70,0,,80,,0,,90,100,0,60,70,0,80,0,80,30,0,30,"Ragweed plant response rating ([2]; 31 g ai/ha): 0; Ryegrass, Italian plant response rating ([3]; 31 g ai/ha): 0; Kochia plant response rating (kochia (Kochia scoparia) [4]; 31 g ai/ha): 0; Foxtail, Giant plant response rating ([5]; 31 g ai/ha): 70; Pigweed plant response rating ([6]; 31 g ai/ha): 0; Pigweed plant response rating (0 to 100 scale) ([6]; 125 g ai/ha): 0; Ragweed plant response rating ([8]; 31 g ai/ha): 0; Barnyardgrass plant response rating ([9]; 31 g ai/ha): 20; Ryegrass, Italian plant response rating ([10]; 31 g ai/ha): 50; Kochia plant response rating (kochia (Kochia scoparia) [11]; 31 g ai/ha): 0; Foxtail, Giant plant response rating ([12]; 31 g ai/ha): 10; Corn plant response rating (corn (Zea mays); 31 g ai/ha): 0; Blackgrass plant response rating ([13]; 31 g ai/ha): 0; Galium plant response rating ([14]; 31 g ai/ha): 0; Pigweed plant response rating ([15]; 31 g ai/ha): 0; Wheat plant response rating ([16]; 31 g ai/ha): 0; Barnyardgrass plant response rating ([17]; 31 g ai/ha): 90; Barnyardgrass plant response rating (0 to 100 scale) ([17]; 125 g ai/ha): 90"
CC1=[N+]([O-])C(C(=O)Nc2cccc(F)c2F)C(c2ccc(C)c(C(F)(F)F)c2)C1 (racemic) [Compound 62],0,55,0,60,90,90,0,60,90,0,0,70,70,0,50,60,40,40,0,40,"Foxtail, Giant plant response rating (0 to 100 scale) ([5]; 500 g ai/ha): 90; Pigweed plant response rating (0 to 100 scale) ([6]; 125 g ai/ha): 10; Pigweed plant response rating (0 to 100 scale) ([6]; 500 g ai/ha): 70; Ragweed plant response rating ([8]; 500 g ai/ha): 50; Barnyardgrass plant response rating ([9]; 500 g ai/ha): 80; Ryegrass, Italian plant response rating ([10]; 500 g ai/ha): 80; Kochia plant response rating (kochia (Kochia scoparia) [11]; 500 g ai/ha): 20; Foxtail, Giant plant response rating ([12]; 500 g ai/ha): 80; Corn plant response rating (corn (Zea mays); 500 g ai/ha): 80; Blackgrass plant response rating ([13]; 500 g ai/ha): 70; Galium plant response rating ([14]; 500 g ai/ha): 50; Pigweed plant response rating ([15]; 500 g ai/ha): 10; Wheat plant response rating ([16]; 500 g ai/ha): 50; Barnyardgrass plant response rating (0 to 100 scale) ([17]; 125 g ai/ha): 90; Barnyardgrass plant response rating (0 to 100 scale) ([17]; 500 g ai/ha): 90"
CC(C)C1=[N+]([O-])C(C(=O)Nc2cccc(F)c2F)C(c2ccc(C(F)(F)F)cc2)C1 (racemic) [Compound 122],0,0,,0,,0,,0,,0,0,0,0,0,0,0,0,0,0,0,"Ragweed plant response rating ([2]; 125 g ai/ha): 0; Ryegrass, Italian plant response rating ([3]; 125 g ai/ha): 0; Kochia plant response rating (kochia (Kochia scoparia) [4]; 125 g ai/ha): 0; Foxtail, Giant plant response rating ([5]; 125 g ai/ha): 0; Foxtail, Giant plant response rating (0 to 100 scale) ([5]; 500 g ai/ha): 0; Pigweed plant response rating ([6]; 125 g ai/ha): 0; Pigweed plant response rating (0 to 100 scale) ([6]; 500 g ai/ha): 0; Ragweed plant response rating ([8]; 500 g ai/ha): 0; Barnyardgrass plant response rating ([9]; 500 g ai/ha): 0; Ryegrass, Italian plant response rating ([10]; 500 g ai/ha): 0; Kochia plant response rating (kochia (Kochia scoparia) [11]; 500 g ai/ha): 0; Foxtail, Giant plant response rating ([12]; 500 g ai/ha): 0; Corn plant response rating (corn (Zea mays); 500 g ai/ha): 0; Blackgrass plant response rating ([13]; 500 g ai/ha): 0; Galium plant response rating ([14]; 500 g ai/ha): 0; Pigweed plant response rating ([15]; 500 g ai/ha): 0; Wheat plant response rating ([16]; 500 g ai/ha): 0; Barnyardgrass plant response rating ([17]; 125 g ai/ha): 0; Barnyardgrass plant response rating (0 to 100 scale) ([17]; 500 g ai/ha): 0"
